Laboratory results published in article PMC8863579, “Effects of pharmacological inhibition of the sodium‐dependent phosphate cotransporter 2b (NPT2b) on intestinal phosphate absorption in mouse and rat models” (Pharmacology Research & Perspectives, 2022).
Where “and” joins values, the source holds several entries; their conditions need not be identical. Equal entries are not always repeated.

How the values were obtained:
[1] = target: T1, rat NPT2b (Rattus norvegicus, UniProt Q9JJ09); experiment: 33P-phosphate uptake in CHO cells expressing rat NPT2b; format: cell-based; settings: geometric mean; 2.5 µM phosphate, 60 min, room temperature
T1 construct: Full-Length cDNA Cloning and Generation of Cell Lines Over-Expressing Human, Mouse, and Rat NPT2b; host or cells: CHO-K1 / T-REx CHO, pcDNA5/TO, tetracycline-induced
T1 sequence (Q9JJ09 1-695): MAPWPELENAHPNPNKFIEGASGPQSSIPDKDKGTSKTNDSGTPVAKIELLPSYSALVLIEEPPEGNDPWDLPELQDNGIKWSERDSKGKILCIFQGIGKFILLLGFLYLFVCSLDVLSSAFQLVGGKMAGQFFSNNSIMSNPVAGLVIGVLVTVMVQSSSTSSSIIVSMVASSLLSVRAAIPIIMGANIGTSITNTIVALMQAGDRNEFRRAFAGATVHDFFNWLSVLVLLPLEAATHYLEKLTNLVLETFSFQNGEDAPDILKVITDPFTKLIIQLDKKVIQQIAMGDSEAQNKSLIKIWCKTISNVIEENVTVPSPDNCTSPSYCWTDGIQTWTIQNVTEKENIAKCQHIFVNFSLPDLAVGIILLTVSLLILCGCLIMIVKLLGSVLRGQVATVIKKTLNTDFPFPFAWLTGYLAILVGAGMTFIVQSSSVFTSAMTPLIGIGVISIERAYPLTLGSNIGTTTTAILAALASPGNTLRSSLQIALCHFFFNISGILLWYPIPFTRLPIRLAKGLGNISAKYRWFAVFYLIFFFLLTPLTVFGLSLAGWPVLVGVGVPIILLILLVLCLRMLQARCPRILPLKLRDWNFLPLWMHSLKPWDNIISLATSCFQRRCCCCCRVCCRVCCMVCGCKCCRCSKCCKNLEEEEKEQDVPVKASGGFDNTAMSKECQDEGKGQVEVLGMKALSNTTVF
Procedure: (§1) T‐Rex™ Chinese Hamster Ovary cells (CHO; Thermo Fisher Scientific) stably expressing human, mouse, or rat NPT2b under a tetracycline‐inducible promoter were generated using standard cDNA transfection and clone selection procedures (see Supporting Information). Cells were plated in 96‐well CytoStar‐T® scintillating microplates and were incubated overnight in growth media plus 100 ng/ml of tetracycline to induce expression of NPT2b. The next day, cells were washed 3 times with 200 µl assay buffer (137 mM NaCl, 5.4 mM KCl, 2.8 mM CaCl2, 1.2 mM MgSO4, and 14 mM Tris‐HCl buffer, pH 7.5). LY3358966 serially diluted 1‐to‐3 in DMSO was added to cells with assay buffer. An equal volume of H3 ^33PO4 (PerkinElmer) in assay buffer supplemented with 5 µM potassium phosphate was then added to initiate radiolabeled phosphate (^33P‐phosphate) uptake. The final phosphate concentration was 2.5 µM and the final DMSO concentration was 1%. Following a 60‐min incubation at room temperature, an equal volume of assay buffer containing 400 µM phloretin was added to stop ^33P‐phosphate uptake. The plate was immediately read on a Wallac MicroBeta Trilux liquid scintillation counter. Percent inhibition at all concentrations tested was calculated, and IC50 values were then determined using a 4‐parameter logistic curve fitting equation.
(§2) The vendors for target cDNA are listed in supplemental Table 1. […]

[2] = Solubility at stomach pH; format: physicochemical; settings: at the pH of the stomach
[3] = target: T2, NPT2b (Rattus norvegicus, UniProt Q9JJ09); experiment: Acute phosphate uptake into plasma in rats; format: in vivo; settings: 10 mg/kg
T2 construct: from tissue; host or cells: intestine of live Sprague Dawley rats, oral dosing
T2 sequence (Q9JJ09 1-695): T1 sequence (Q9JJ09 1-695)
Procedure: A similar method was used to determine the ability of LY3358966 to inhibit acute phosphate uptake into plasma in Sprague Dawley rats (192–225 g, n = 14/group). In the rat studies, a 2 ml volume of the radioactive phosphate dosing solution (about 10 million dpm of H3 ^33PO4) was dosed to each animal. Due to the low inhibitory activity at 15 min after dosing the compound, the effect at 4 h was not determined.

[4] = target: T3, human NPT2b (Homo sapiens, UniProt O95436); experiment: 33P-phosphate uptake in CHO cells expressing human NPT2b; format: cell-based; settings: geometric mean; 2.5 µM phosphate, 60 min, room temperature
T3 construct: Full-Length cDNA Cloning and Generation of Cell Lines Over-Expressing Human, Mouse, and Rat NPT2b; host or cells: CHO-K1 / T-REx CHO, pcDNA5/TO, tetracycline-induced
T3 sequence (O95436 1-690): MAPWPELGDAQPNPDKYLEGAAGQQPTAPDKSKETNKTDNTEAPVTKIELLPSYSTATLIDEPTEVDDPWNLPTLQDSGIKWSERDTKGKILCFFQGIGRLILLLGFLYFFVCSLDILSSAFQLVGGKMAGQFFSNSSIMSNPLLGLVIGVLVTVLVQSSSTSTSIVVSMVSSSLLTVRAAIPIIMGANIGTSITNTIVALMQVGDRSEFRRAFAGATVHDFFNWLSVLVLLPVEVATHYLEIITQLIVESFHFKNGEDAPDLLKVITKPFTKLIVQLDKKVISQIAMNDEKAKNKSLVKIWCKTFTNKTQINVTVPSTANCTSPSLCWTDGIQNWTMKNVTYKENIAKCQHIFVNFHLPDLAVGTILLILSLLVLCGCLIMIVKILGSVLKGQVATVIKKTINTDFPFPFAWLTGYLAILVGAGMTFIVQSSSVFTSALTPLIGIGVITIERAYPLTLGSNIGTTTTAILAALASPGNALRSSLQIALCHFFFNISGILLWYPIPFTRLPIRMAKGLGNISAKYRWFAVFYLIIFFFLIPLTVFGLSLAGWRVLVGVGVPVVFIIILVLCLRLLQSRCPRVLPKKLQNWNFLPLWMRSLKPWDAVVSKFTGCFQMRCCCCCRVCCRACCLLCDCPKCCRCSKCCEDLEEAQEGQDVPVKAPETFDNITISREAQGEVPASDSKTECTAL
Procedure: as §1, §2

IC50 [1]: 26.8 nM | solubility [2]: minimal solubility | decrease of acute phosphate uptake into plasma, mean ± SEM of three studies ([3]; 15 min): 22% and 22 ± 3% | decrease of phosphate absorption (acute uptake into plasma) ([3]; two additional single studies): 28.2% and 19.2% | IC50 [4]: 32.4 nM
Compound: CC1(C)CN(C(=O)NCCCCO)CCN1Cc1cccc(C(=O)Nc2sc3c(c2C(=O)Nc2cc(F)c(CCc4ccc(C(=O)O)cc4)c(F)c2)CCCC3)c1 [LY3358966, 4‐[2‐[2,6‐difluoro‐4‐[[2‐[[3‐[[4‐(4‐hydroxybutylcarbamoyl)‐2,2‐dimethyl‐piperazin‐1‐yl]methyl]benzoyl]amino]‐4,5,6,7‐tetrahydrobenzothiophene‐3‐carbonyl]amino]phenyl]ethyl]benzoic acid]
